Laboratory results reported in PubChem BioAssay AID1963852 (Molecular Pharmacology Branch, DTP, NCI, 2024).
Values joined by “and” are separate entries in the source; they are usually repeats but may differ in a detail not shown here. Identical values can stand only once.

System: 282377-053-R-J1-PDC complex spheroid viability
Experiment: Anticancer human tumor 282377-053-R-J1-PDC patient-derived colon adenocarcinoma cell line growth inhibition [POLQ]
Settings: for viability, T/C: stronger effect = lower value
Experimental: Multicellular complex tumor spheroid response to Polymerase (POL) inhibitors (novobiocin, ART-558, RP6685) in combination with a variety of drugs and investigational agents in selected tumor cell lines
The POL inhibitors (novobiocin, ART-558, and RP6685) were evaluated both individually and in combination with standard of care and investigational anticancer small molecules within a complex spheroid model of solid tumors. . Complex spheroids include a stromal component modeled by human endothelial cells (HUVEC) and fibroblasts modeled by human mesenchymal stem cells (MSCs). The concentration ranges selected for each drug and investigational agent were based upon clinically achievable concentrations if the clinical Cmax of the agent was known.
Compounds. The drugs and investigational agents: novobiocin (NSC847541), ART-558 (NSC835418), RP-6685 (NSC848927), peposertib (NSC802822), ceralasertib (NSC780249), elimusertib (NSC800525), camonsertib (NSC841442), AZD-1390 (NSC803789), olaparib (NSC753686), talazoparib (NSC767125), rucaparib (NSC756644), sotorasib (NSC818433), MRTX-1133 (NSC836407), SN-38 (NSC673596), topotecan (NSC609699), epotoside (NSC141540), doxorubicin (NSC123127), gemcitabine (NSC613327), 5-fluorouracil (NSC19893), paclitaxel (NSC125973), vemurafenib (NSC761431), MSA-2 (NSC828583), SN-011 (NSC837082), adavosertib (NSC754352), prexasertib (NSC758257), carboplatin (NSC241240) and oxaliplatin (NSC266046), were obtained from the National Cancer Institute (NCI) Developmental Therapeutics Program Chemical Repository (21). The FDA-approved anticancer drug set is available from the Developmental Therapeutics Program at https://dtp.cancer.gov/organization/dscb/obtaining/. […] The stock solutions were prepared in dimethyl sulfoxide (DMSO, Sigma-Aldrich, St. Louis, MO, cat. D2650), except for the platinum compounds which were prepared in saline (Quality Biological, Gaithersburg, MD, cat. 114-055-101), at 800-fold the tested concentration and stored at -70 degrees C prior to their use. All drugs and investigational agents were tested over a range starting from a high concentration at or near the clinical Cmax and decreasing in half-log increments. If the clinical Cmax for an agent had not been determined, the highest concentration tested was 10 microM, except for SN-38, which was tested at a high concentration of 1 microM.
Cell Culture. All cells were maintained in an incubator at 37 degrees C and 5% CO2 with 95% humidity. The PDC lines were cultured according to standard operating procedures established by the NCI PDMR (https://pdmr.cancer.gov). Table 3 of the manuscript, lists the cell lines along with the number of the three cell types plated to form the mct-spheroids and media for tumor cell growth. After thawing, all PDC lines, except 997537-175-T-J1-PDC and 415267-285-R-J2-PDC, were cultured in Matrigel-coated flasks prepared with a working solution of 1X Ham's F-12 nutrient mix, without supplementation (Thermo Fisher Scientific, cat. 11765054), 100 U/mL penicillin-streptomycin (Thermo Fisher Scientific, cat. 15140122), and 2.5% Matrigel (Corning Inc., Corning, NY, cat. 354248) for the first three passages. The two PDC lines 997537-175-T-J1-PDC and 415267-285-R-J2-PDC were cultured on uncoated flasks. The 857933-349-R-J2-PDC line was cultured in 6C/Colon 1B media containing advanced DMEM/F-12 (Thermo Fisher Scientific, cat. 12634028), 10 mM HEPES (Thermo Fisher Scientific, cat. 15630080), 1X GlutaMAX supplement (Thermo Fisher Scientific, cat. 35050061), 0.1 mg/mL primocin (InvivoGen, San Diego, CA, cat. ant-pm-2), 10% defined fetal bovine serum, heat inactivated (HyClone Laboratories Inc., Logan, UT, cat. SH30070.03HI), 50% L-WRN conditioned media (ATCC, cat. CRL-3276), 1.25 mM N-Acetyl-L-cysteine (Sigma-Aldrich, cat. A9165), 10 mM nicotinamide (Sigma-Aldrich, cat. N0636), 1X B-27 supplement (Thermo Fisher Scientific, cat. 17504044), 1X N-2 supplement (Thermo Fisher Scientific, cat. […]
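Note: spheroids exposed to compounds for seven days.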
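Throughout, for viability, T/C: 100% = DMSO vehicle control viability.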

## C#Cc1c(F)ccc2cc(O)cc(-c3ncc4c(N5CC6CCC(C5)N6)nc(OCC56CCCN5CC(F)C6)nc4c3F)c12 (stereo not given)
Compound 0.0316 µM
  viability, T/C: 64.6% and 97.7% and 80.6%
Compound 0.1 µM
  viability, T/C: 88.7% and 85.6% and 110%
Compound 0.316 µM
  viability, T/C: 112% and 102% and 114%
Compound 1 µM
  viability, T/C: 99.1% and 101% and 114%
Compound 3.16 µM
  viability, T/C: 84% and 93.9% and 105%
Compound 10 µM
  viability, T/C: 74.8% and 83.1% and 86.3%
Curve of compound
  IC50: > 10000 nM

## COc1cccc2c1C(=O)c1c(O)c3c(c(O)c1C2=O)CC(O)(C(=O)CO)CC3OC1CC(N)C(O)C(C)O1 (stereo not given) + COC1C(OC(N)=O)C(O)C(Oc2ccc3c(O)c(NC(=O)c4ccc(O)c(CC=C(C)C)c4)c(=O)oc3c2C)OC1(C)C
Curve of first compound, second compound 0.0316 µM
  IC50: 273 nM
Curve of first compound, second compound 0.1 µM
  IC50: 323 nM
Curve of first compound, second compound 0.316 µM
  IC50: 284 nM
Curve of first compound, second compound 1 µM
  IC50: 386 nM
Curve of first compound, second compound 3.16 µM
  IC50: 289 nM
Curve of first compound, second compound 10 µM
  IC50: 378 nM
Second compound 0.0316 µM, first compound 0.0316 µM
  viability, T/C: 92.3%
Second compound 0.0316 µM, first compound 0.1 µM
  viability, T/C: 81%
Second compound 0.0316 µM, first compound 0.316 µM
  viability, T/C: 43.9%
Second compound 0.0316 µM, first compound 1 µM
  viability, T/C: 17.5%
Second compound 0.0316 µM, first compound 3.16 µM
  viability, T/C: 1.11%
Second compound 0.0316 µM, first compound 10 µM
  viability, T/C: 2.81%
Second compound 0.1 µM, first compound 0.0316 µM
  viability, T/C: 117%
Second compound 0.1 µM, first compound 0.1 µM
  viability, T/C: 82.7%
Second compound 0.1 µM, first compound 0.316 µM
  viability, T/C: 57.6%
Second compound 0.1 µM, first compound 1 µM
  viability, T/C: 16.5%
Second compound 0.1 µM, first compound 3.16 µM
  viability, T/C: 0.71%
Second compound 0.1 µM, first compound 10 µM
  viability, T/C: 2.97%
Second compound 0.316 µM, first compound 0.0316 µM
  viability, T/C: 95.5%
Second compound 0.316 µM, first compound 0.1 µM
  viability, T/C: 84.9%
Second compound 0.316 µM, first compound 0.316 µM
  viability, T/C: 44.9%
Second compound 0.316 µM, first compound 1 µM
  viability, T/C: 16.1%
Second compound 0.316 µM, first compound 3.16 µM
  viability, T/C: 0.67%
Second compound 0.316 µM, first compound 10 µM
  viability, T/C: 2.69%
Second compound 1 µM, first compound 0.0316 µM
  viability, T/C: 97.1%
Second compound 1 µM, first compound 0.1 µM
  viability, T/C: 88.6%
Second compound 1 µM, first compound 0.316 µM
  viability, T/C: 58%
Second compound 1 µM, first compound 1 µM
  viability, T/C: 14.3%
Second compound 1 µM, first compound 3.16 µM
  viability, T/C: 1.36%
Second compound 1 µM, first compound 10 µM
  viability, T/C: 2.91%
Second compound 3.16 µM, first compound 0.0316 µM
  viability, T/C: 90.2%
Second compound 3.16 µM, first compound 0.1 µM
  viability, T/C: 88.9%
Second compound 3.16 µM, first compound 0.316 µM
  viability, T/C: 44.8%
Second compound 3.16 µM, first compound 1 µM
  viability, T/C: 13.7%
Second compound 3.16 µM, first compound 3.16 µM
  viability, T/C: 0.83%
Second compound 3.16 µM, first compound 10 µM
  viability, T/C: 2.03%
Second compound 10 µM, first compound 0.0316 µM
  viability, T/C: 84.4%
Second compound 10 µM, first compound 0.1 µM
  viability, T/C: 76.8%
Second compound 10 µM, first compound 0.316 µM
  viability, T/C: 56.8%
Second compound 10 µM, first compound 1 µM
  viability, T/C: 16.3%
Second compound 10 µM, first compound 3.16 µM
  viability, T/C: 2.09%
Second compound 10 µM, first compound 10 µM
  viability, T/C: 3.61%

## Nc1ccn(C2OC(CO)C(O)C2(F)F)c(=O)n1 (stereo not given)
Compound 0.0316 µM
  viability, T/C: 74% and 105% and 75.7%
Compound 0.1 µM
  viability, T/C: 45.1% and 88.6% and 54.5%
Compound 0.316 µM
  viability, T/C: 30.1% and 97.8% and 29.1%
Compound 1 µM
  viability, T/C: 23.5% and 84.4% and 33.9%
Compound 3.16 µM
  viability, T/C: 23.9% and 84% and 18.8%
Compound 10 µM
  viability, T/C: 13.4% and 71.6% and 11.1%
